Measurements reported in ChEMBL document CHEMBL1201862, “PubChem BioAssay data set” (2004).
The source made the active and inactive calls.

Tests used:
fMet-Leu-Phe receptor = fMet-Leu-Phe receptor (Homo sapiens, UniProt P21462); test: FPR ligands, dose response (AID 519); format: functional
[1] = molecular target: T1, Histone-lysine N-methyltransferase NSD2 (Homo sapiens, UniProt O96028); format: biochemical
T1 sequence (O96028 whole entry): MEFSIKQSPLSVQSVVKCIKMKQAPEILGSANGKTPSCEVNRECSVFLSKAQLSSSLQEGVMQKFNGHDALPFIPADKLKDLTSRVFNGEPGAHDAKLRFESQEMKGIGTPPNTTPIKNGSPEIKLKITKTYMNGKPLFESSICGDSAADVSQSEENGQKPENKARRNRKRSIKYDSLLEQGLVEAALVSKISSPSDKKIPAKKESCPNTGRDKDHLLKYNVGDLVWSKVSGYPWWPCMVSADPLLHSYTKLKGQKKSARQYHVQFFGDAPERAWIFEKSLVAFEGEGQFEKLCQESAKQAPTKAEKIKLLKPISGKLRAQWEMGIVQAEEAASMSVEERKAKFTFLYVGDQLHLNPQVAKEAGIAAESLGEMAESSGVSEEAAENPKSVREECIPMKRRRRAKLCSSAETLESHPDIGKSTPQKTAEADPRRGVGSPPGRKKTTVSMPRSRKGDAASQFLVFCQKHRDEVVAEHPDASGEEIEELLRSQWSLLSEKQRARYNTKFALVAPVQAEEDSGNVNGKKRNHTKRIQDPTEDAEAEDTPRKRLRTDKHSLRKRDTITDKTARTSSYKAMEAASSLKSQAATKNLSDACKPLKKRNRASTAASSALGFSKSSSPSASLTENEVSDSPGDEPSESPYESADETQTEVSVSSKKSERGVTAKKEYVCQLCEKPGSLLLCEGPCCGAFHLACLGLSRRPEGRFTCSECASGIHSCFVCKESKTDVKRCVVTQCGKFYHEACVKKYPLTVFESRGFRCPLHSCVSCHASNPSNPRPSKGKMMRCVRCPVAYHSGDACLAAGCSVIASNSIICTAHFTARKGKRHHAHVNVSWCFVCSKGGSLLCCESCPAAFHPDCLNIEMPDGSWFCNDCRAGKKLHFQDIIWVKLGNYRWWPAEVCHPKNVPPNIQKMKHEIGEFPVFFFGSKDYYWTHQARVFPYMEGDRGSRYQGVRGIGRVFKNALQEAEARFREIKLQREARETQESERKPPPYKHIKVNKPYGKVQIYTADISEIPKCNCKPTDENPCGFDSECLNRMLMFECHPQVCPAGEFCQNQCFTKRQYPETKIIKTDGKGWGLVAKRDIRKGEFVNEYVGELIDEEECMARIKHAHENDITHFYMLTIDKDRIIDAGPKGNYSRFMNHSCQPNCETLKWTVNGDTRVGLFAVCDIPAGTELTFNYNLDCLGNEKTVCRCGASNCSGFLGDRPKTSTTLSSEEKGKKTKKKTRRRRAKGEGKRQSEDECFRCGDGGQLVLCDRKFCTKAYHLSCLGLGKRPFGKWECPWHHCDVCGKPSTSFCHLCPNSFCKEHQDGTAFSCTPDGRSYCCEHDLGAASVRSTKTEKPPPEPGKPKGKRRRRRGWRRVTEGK

[2] = molecular target: Glucose-6-phosphate 1-dehydrogenase (Homo sapiens, UniProt P11413); test: human G6PD enzyme inhibitors, dose response, selectivity assay for P. falciparum G6PD inhibitor project, biochemical, fluorescence (AID 504792); format: functional
Glucose-6-phosphate 1-dehydrogenase, sequence (P11413 whole entry): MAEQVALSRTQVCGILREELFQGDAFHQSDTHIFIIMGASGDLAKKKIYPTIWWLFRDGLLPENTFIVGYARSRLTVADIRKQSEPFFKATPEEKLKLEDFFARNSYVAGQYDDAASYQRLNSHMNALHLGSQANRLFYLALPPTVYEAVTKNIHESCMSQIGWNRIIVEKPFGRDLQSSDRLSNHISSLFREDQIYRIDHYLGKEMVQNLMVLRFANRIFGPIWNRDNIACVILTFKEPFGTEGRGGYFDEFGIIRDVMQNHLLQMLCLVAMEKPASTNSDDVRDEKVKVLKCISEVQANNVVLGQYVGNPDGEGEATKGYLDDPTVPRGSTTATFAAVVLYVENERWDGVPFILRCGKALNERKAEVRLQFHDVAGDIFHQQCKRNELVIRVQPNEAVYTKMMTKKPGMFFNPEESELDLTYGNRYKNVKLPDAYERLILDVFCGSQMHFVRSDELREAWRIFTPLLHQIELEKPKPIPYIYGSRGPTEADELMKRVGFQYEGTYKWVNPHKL

Caspase-6 = molecular target: T2, Caspase-6 (Homo sapiens, UniProt P55212); test: human caspase-6 inhibitors, dose response, biochemical, VEID-R110 fluorescence, cherry-pick (AID 720632)
T2 sequence (P55212 whole entry): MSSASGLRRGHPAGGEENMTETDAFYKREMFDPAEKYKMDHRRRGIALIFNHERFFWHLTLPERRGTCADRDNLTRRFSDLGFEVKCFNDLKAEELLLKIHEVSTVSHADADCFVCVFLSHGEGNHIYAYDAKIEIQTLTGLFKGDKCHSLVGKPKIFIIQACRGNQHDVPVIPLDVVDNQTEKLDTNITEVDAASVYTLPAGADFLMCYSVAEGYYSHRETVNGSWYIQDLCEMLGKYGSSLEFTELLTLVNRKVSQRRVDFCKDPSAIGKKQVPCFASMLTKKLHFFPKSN

Caspase-7 = Caspase-7 (Homo sapiens, UniProt P55210); test: human caspase-7 inhibitors, dose response, selectivity assay for caspase-6 inhibitor project, biochemical, DEVD-R110 fluorescence, cherry-pick (AID 743295)
Caspase-7, sequence (P55210 24-198 limits assumed): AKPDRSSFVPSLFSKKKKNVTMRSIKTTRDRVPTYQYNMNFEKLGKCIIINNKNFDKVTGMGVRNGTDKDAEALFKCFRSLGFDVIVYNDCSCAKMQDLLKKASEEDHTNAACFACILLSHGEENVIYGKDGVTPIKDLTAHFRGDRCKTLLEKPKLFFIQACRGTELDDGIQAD
Caspase-7, sequence (P55210 207-303 limits assumed): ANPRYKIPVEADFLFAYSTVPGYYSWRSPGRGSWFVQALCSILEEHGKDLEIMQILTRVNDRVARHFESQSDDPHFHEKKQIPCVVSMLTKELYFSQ

Genome polyprotein = Genome polyprotein (dengue virus type 2, UniProt P29990); test: Dengue-2 NS5 methyltransferase inhibitors, primary screen, biochemical, confirmation dose response (AID 588689); format: functional
Genome polyprotein, sequence (P29990 2492-3391 limits assumed): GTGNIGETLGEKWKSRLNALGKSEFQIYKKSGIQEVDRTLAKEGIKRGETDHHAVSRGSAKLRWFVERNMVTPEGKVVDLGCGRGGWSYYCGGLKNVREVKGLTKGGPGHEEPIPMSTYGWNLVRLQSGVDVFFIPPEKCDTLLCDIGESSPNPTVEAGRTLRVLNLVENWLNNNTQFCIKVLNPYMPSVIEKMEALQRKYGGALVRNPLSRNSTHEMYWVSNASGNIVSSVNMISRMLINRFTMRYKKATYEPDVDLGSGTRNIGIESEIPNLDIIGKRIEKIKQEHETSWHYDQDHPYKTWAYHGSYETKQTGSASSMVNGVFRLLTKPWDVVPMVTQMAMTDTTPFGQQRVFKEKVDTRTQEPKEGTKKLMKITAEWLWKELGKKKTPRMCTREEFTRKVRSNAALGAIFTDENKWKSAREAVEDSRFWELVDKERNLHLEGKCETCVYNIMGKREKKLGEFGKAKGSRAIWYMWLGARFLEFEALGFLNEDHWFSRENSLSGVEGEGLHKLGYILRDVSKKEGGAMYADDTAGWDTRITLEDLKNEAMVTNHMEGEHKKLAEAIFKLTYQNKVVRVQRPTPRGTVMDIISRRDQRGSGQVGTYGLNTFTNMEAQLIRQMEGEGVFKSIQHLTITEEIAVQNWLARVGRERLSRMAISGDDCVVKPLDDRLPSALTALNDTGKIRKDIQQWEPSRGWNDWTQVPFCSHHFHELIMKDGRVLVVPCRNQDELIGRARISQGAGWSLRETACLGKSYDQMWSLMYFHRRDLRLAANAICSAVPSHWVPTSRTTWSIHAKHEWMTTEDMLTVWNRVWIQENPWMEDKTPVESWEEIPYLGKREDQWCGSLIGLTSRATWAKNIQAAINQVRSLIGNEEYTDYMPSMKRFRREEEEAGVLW

Protein skinhead-1 = molecular target: T3, Protein skinhead-1 (Caenorhabditis elegans, UniProt P34707); format: functional
T3 sequence (P34707 whole entry): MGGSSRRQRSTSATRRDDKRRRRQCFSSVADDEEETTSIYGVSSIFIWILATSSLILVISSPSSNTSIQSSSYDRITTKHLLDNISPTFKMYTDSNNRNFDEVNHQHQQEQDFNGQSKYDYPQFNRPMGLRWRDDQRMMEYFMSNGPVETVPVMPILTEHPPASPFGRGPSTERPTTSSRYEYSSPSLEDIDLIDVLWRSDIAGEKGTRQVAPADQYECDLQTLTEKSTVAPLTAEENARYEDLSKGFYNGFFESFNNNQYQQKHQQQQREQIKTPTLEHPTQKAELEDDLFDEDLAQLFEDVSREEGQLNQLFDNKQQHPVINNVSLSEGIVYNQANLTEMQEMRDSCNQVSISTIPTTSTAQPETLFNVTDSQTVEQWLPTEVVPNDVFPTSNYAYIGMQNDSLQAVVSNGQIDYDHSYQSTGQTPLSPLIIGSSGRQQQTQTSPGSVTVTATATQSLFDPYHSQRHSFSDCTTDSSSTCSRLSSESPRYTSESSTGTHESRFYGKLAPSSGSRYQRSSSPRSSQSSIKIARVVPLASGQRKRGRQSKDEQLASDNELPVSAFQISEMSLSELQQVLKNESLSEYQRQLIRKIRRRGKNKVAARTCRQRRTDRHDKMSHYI

[3] = molecular target: Voltage-gated inwardly rectifying potassium channel KCNH2 (Homo sapiens, UniProt Q12809); settings: Potency;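 also: confirmatory quantitative high-throughput screen measuring inhibition of hERG channel activity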
Voltage-gated inwardly rectifying potassium channel KCNH2, sequence (Q12809 whole entry, the tested form may be a part): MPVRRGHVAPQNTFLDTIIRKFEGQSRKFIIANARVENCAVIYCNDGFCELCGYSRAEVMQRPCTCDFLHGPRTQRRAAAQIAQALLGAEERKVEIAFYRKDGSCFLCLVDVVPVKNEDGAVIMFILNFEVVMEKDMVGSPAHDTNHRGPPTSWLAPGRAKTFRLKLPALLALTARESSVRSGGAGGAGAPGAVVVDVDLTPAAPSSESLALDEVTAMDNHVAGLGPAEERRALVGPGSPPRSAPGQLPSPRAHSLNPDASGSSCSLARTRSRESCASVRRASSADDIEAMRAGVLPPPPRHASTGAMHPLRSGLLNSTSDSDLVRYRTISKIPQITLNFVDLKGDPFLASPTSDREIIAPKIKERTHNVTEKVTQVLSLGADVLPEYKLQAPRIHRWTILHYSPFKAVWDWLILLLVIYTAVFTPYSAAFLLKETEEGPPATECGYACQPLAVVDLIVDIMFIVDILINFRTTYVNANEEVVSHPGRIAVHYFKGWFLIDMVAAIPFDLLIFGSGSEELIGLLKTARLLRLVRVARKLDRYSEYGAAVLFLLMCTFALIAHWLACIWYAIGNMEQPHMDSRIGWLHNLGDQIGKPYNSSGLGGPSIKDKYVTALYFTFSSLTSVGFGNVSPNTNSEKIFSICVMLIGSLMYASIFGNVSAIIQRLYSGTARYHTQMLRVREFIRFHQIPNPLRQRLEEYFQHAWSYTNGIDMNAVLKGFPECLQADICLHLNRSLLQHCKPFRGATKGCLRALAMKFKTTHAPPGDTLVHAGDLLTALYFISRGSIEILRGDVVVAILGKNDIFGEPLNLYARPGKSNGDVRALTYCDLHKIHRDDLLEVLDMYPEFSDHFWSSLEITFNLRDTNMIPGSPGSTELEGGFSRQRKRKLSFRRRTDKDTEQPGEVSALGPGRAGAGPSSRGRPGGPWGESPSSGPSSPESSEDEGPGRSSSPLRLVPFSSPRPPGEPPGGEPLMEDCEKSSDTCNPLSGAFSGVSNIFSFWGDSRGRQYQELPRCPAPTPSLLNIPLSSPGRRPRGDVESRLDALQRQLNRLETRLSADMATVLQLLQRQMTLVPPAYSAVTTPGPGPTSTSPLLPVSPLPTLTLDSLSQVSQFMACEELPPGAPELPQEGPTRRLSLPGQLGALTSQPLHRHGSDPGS

[4] = molecular target: T4, Oxysterols receptor LXR-beta (Homo sapiens, UniProt P55055); format: functional, cell-based;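 also: agonist activity at LXR measured by a cell-based luminescence readout across a dose range, run as a counterscreen for daf-12 agonists; HEK293 cells with Gal4-LXR fusion and GAL4-driven luciferase reporter; potency for activation of Gal4-LXR reporter so compounds are agonists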
T4 sequence (P55055 whole entry): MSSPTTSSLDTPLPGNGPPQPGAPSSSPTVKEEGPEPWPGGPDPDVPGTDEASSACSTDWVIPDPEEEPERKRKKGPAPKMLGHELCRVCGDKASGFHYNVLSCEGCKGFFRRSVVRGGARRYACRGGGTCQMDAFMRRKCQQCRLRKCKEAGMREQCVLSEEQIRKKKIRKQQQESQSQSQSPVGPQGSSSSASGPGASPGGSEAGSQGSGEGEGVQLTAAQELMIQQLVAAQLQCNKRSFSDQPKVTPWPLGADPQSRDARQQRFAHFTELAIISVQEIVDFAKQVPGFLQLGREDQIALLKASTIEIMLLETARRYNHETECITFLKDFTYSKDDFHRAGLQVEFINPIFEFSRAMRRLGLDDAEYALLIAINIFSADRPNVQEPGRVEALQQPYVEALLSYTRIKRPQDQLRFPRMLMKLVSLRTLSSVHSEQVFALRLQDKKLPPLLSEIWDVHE

[5] = molecular target: T5, Sentrin-specific protease 7 (Homo sapiens, UniProt Q9BQF6); format: functional;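 also: Luminescence-based dose-response confirmation of ultra-high-throughput screening hits, measuring inhibition of SENP7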
T5 sequence (Q9BQF6 whole entry): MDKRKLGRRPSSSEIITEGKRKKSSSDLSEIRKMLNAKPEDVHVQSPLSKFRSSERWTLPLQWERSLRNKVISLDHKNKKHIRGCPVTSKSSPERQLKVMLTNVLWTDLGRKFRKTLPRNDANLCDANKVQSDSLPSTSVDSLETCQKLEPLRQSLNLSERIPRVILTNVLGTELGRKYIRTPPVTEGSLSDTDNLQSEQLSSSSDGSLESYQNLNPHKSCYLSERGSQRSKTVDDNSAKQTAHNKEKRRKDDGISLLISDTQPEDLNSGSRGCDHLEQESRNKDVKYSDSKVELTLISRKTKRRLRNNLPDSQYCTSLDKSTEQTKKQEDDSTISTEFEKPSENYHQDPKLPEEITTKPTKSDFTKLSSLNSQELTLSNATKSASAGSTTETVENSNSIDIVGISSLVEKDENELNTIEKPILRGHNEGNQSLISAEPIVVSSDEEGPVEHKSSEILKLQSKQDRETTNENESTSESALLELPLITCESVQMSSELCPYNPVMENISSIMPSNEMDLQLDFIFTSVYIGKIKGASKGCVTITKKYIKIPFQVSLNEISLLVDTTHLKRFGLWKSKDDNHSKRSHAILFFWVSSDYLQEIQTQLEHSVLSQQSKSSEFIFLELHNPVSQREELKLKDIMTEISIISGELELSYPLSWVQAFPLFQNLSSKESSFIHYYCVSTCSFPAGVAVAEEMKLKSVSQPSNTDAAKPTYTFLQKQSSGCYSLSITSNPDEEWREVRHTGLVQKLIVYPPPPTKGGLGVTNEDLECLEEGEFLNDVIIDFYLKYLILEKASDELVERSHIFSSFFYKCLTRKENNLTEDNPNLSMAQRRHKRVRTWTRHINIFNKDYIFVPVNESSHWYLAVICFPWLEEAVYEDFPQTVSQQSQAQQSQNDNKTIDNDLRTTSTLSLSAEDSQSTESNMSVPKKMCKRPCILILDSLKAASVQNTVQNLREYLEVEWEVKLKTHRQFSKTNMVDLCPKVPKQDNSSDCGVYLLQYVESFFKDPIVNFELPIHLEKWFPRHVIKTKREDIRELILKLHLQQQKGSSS

[6] = molecular target: T6, Sentrin-specific protease 6 (Homo sapiens, UniProt Q9GZR1); format: functional;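 also: Luminescence-based dose-response confirmatory assay of SENP6 inhibition, following up an ultra-high-throughput screen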
T6 sequence (Q9GZR1 whole entry): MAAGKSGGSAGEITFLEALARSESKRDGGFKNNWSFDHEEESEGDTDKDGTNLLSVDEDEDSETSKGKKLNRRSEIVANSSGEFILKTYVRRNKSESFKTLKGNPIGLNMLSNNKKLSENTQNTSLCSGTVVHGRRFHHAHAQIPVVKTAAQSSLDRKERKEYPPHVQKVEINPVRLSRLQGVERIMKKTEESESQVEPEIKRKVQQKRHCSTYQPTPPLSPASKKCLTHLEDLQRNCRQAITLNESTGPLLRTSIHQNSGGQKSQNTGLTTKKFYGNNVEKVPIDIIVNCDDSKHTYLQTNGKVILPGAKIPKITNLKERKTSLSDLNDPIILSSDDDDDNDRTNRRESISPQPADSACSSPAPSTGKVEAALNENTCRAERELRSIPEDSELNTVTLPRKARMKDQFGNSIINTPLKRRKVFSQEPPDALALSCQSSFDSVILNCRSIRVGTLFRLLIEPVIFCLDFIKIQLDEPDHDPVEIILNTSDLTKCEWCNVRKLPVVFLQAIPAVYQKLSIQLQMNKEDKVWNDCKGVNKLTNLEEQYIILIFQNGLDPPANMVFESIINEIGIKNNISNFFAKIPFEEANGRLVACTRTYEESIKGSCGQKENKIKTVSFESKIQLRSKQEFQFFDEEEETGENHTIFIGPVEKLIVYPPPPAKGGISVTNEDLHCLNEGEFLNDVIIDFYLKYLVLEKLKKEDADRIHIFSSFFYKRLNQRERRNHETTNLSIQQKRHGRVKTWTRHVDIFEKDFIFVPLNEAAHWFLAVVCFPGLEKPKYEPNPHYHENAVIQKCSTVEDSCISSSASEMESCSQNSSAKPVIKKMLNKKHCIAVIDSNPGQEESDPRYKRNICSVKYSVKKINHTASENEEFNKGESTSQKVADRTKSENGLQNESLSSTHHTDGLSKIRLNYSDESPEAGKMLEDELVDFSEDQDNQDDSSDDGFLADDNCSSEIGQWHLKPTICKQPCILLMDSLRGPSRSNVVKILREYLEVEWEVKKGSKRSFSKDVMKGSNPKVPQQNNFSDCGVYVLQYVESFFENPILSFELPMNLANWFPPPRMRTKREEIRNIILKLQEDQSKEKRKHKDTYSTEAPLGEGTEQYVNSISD

Caspase-3 = molecular target: T7, Caspase-3 (Homo sapiens, UniProt P42574); format: functional;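 also: Dose-response selectivity test against caspase-3 for candidate inhibitors of sentrin-specific proteases (SENPs)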
T7 sequence (P42574 whole entry): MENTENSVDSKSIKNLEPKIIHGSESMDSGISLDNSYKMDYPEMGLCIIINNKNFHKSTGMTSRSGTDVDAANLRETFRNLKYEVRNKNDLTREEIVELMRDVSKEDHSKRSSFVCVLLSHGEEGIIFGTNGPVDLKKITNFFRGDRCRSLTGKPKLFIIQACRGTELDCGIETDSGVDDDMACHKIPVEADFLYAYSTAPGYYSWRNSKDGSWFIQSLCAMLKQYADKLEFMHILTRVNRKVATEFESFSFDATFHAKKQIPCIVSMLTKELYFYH

[7] = molecular target: T8, Sentrin-specific protease 8 (Homo sapiens, UniProt Q96LD8); format: functional;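 also: luminescence read-out of SENP8 inhibition, dose-response confirmation following an ultra-high-throughput screen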
T8 sequence (Q96LD8 whole entry): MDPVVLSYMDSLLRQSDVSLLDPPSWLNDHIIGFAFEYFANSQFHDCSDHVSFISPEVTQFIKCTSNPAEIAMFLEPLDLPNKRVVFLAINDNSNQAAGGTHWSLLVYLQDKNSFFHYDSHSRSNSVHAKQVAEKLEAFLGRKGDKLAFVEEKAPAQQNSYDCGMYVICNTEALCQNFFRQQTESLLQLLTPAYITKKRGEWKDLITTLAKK

fMet-Leu-Phe receptor, sequence (P21462 whole entry): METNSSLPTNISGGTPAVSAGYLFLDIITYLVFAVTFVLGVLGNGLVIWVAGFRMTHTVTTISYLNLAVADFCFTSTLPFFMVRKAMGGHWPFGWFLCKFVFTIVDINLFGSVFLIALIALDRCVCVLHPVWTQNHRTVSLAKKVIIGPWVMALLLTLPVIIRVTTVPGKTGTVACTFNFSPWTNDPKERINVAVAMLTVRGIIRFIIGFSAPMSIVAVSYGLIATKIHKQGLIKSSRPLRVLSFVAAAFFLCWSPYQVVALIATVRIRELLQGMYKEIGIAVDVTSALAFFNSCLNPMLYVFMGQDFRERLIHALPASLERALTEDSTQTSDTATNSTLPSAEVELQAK

In the case of C=CCOc1cccc(C2C(C(=O)c3ccco3)=C(O)C(=O)N2CCN2CCOCC2)c1 (centres undefined), the Ki (fMet-Leu-Phe receptor) is reported as > 66.7 µM (inactive).

For Oc1cc2c(cc1O)[C@H]1c3ccc(O)c(O)c3OC[C@@]1(O)C2, the AC50 [1] was 1.53 µM (active), the IC50 [2] was 67.6 µM (inactive) and the AC50 (Caspase-6) was 3.95 µM (active). For the same compound, the AC50 (Caspase-7) was 68.5 µM (active), the IC50 (Genome polyprotein) was 22.5 µM (active) and the IC50 (Protein skinhead-1) was > 100 µM (inactive). The AC50 [3] was 22.4 µM (inconclusive).

For Cc1ccc(C(=O)C2=C(O)C(=O)N(CC(C)O)C2c2ccc(N(C)C)cc2)cc1 (centres undefined), the Ki (fMet-Leu-Phe receptor) was > 66.7 µM (inactive).

In the case of Cc1ccc(/C=N/N=C/c2ccc(C)s2)s1, the EC50 [4] is reported as > 67.5 µM (inactive), the IC50 [5] is reported as 5.6 µM (active) and the IC50 [6] is reported as 18.7 µM (active). For the same compound, the IC50 (Caspase-3) was 18.5 µM (active) and the IC50 [7] was 21.9 µM (active).
